Reference: patent publication US20230293539A1, “MLL1-WDR5 PROTEIN-PROTEIN INTERACTION INHIBITOR COMPOUNDS AND USES THEREOF” (HUYABIO International, LLC, priority 2022, published 2023)

Key:
ATX = ATX (Homo sapiens, UniProt Q13822); test: Selectivity panel (Table 3); format: biochemical
BRD4-BD1 = target: T1, BRD4-BD1 (Homo sapiens, UniProt O60885); test: Selectivity panel (Table 3); format: binding
T1 construct: BRD4-BD1

HDAC8 = HDAC8 (Homo sapiens, UniProt Q9BY41); test: Selectivity panel (Table 3); format: biochemical
KRAS G12C = KRAS G12C (Homo sapiens, UniProt P01116, G12C); test: Selectivity panel (Table 3); format: binding
Sequence of KRAS G12C (P01116 1-188 isoform P01116-2 G12C): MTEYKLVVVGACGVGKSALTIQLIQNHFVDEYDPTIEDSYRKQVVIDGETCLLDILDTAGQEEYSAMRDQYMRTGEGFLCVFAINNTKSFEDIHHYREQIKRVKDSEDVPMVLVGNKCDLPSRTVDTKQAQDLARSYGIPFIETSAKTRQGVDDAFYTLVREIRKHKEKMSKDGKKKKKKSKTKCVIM

KRAS G12V = KRAS G12V (Homo sapiens, UniProt P01116, G12V); test: Selectivity panel (Table 3); format: binding
Sequence of KRAS G12V (P01116 1-188 isoform P01116-2 G12V): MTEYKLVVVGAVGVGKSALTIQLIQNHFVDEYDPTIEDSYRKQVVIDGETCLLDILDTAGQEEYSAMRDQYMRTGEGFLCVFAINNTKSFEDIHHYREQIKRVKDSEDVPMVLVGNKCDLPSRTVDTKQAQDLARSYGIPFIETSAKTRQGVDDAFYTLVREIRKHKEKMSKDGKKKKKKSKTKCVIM

KRAS WT = KRAS WT (Homo sapiens, UniProt P01116); test: Selectivity panel (Table 3); format: binding
Sequence of KRAS WT (P01116 1-188 isoform P01116-2): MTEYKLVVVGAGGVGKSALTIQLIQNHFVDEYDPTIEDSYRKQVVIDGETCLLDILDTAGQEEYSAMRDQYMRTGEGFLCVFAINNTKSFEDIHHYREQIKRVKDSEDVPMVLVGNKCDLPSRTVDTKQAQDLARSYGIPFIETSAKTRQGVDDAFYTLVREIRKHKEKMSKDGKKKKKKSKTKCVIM

PD-1/PD-L1 = PD-1/PD-L1 (Homo sapiens, UniProt Q9NZQ7); test: Selectivity panel (Table 3); format: binding
Sequence of PD-1/PD-L1 (Q9NZQ7 19-238 limits assumed): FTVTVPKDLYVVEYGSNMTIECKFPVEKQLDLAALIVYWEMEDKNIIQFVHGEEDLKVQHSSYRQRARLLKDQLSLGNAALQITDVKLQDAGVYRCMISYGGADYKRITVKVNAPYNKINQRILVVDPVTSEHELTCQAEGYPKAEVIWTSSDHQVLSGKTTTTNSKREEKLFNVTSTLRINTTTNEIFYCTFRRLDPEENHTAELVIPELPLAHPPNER

POLQ ATPase = POLQ ATPase (Homo sapiens, UniProt O75417); test: Selectivity panel (Table 3); format: biochemical
Sequence of POLQ ATPase (O75417 whole entry): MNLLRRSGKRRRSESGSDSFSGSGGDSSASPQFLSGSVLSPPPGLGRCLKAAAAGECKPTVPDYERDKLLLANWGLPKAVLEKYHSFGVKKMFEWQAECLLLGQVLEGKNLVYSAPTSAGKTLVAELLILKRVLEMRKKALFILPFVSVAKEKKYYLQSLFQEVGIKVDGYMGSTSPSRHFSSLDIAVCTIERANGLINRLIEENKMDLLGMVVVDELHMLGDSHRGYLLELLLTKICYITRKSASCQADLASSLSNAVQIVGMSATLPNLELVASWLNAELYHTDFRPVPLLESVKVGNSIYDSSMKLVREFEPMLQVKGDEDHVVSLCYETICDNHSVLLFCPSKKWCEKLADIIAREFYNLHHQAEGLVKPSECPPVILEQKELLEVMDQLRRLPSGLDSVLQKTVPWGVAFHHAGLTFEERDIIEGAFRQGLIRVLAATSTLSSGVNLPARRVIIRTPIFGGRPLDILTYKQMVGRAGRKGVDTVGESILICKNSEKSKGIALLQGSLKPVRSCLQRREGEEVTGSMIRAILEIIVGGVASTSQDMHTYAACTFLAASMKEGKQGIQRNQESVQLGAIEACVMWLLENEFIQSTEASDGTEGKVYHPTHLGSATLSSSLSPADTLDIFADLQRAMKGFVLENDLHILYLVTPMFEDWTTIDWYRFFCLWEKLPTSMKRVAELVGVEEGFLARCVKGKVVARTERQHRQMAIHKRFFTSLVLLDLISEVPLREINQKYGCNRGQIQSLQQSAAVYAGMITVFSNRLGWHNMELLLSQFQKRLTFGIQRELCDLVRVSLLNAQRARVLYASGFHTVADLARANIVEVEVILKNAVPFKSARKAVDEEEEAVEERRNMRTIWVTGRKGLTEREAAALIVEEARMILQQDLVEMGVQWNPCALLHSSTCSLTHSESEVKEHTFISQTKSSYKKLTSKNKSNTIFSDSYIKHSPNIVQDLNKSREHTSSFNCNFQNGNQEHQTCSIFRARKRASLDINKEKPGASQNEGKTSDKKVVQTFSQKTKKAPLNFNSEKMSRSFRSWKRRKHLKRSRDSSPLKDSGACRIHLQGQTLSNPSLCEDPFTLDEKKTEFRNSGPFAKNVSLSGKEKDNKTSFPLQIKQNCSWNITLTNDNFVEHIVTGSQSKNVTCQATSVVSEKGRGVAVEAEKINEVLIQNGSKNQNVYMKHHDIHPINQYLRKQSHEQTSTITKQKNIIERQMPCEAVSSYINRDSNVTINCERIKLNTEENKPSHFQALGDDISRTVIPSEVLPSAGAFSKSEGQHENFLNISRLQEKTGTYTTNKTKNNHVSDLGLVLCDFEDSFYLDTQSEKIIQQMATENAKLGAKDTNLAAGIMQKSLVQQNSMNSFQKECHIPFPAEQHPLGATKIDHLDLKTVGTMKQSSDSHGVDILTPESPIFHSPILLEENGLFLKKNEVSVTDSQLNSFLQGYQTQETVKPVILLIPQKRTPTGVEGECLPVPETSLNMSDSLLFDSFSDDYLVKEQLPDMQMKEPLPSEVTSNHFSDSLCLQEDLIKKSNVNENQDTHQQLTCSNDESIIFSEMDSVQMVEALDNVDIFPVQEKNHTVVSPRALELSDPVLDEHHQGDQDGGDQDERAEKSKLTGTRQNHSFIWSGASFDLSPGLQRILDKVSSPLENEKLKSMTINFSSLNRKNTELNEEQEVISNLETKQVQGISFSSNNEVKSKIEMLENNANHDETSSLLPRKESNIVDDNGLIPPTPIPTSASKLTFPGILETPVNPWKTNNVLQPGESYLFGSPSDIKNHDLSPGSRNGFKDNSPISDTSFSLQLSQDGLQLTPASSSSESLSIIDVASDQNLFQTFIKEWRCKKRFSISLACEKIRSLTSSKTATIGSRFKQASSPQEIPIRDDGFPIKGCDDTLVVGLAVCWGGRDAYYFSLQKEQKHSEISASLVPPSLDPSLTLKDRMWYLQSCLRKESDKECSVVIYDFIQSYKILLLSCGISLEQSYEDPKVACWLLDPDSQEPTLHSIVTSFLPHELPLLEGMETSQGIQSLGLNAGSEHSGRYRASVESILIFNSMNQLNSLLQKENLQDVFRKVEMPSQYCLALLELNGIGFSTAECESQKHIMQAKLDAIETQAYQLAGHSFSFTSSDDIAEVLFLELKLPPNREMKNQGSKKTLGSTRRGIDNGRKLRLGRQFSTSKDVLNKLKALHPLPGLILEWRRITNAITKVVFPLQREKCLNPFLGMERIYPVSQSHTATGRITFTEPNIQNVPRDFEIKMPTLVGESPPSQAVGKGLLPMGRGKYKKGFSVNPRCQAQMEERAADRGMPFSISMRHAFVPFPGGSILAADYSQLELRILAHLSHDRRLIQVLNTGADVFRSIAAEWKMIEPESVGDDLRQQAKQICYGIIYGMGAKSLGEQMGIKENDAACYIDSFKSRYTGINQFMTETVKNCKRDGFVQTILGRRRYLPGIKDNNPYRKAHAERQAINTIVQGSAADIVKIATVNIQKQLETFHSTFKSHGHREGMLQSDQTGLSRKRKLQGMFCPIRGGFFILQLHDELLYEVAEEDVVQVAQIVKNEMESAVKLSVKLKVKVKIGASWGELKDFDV

POLQPolymerase = POLQPolymerase (Homo sapiens, UniProt O75417); test: Selectivity panel (Table 3); format: biochemical
Sequence of POLQPolymerase (O75417 whole entry): as above

PRMT5 = PRMT5 (Homo sapiens, UniProt O14744); test: Selectivity panel (Table 3); format: biochemical
TEAD1 = TEAD1 (Homo sapiens, UniProt P28347); test: Selectivity panel (Table 3); format: binding
TEAD3 = TEAD3 (Homo sapiens, UniProt Q99594); test: Selectivity panel (Table 3); format: binding
Sequence of TEAD3 (Q99594 whole entry, species assumed): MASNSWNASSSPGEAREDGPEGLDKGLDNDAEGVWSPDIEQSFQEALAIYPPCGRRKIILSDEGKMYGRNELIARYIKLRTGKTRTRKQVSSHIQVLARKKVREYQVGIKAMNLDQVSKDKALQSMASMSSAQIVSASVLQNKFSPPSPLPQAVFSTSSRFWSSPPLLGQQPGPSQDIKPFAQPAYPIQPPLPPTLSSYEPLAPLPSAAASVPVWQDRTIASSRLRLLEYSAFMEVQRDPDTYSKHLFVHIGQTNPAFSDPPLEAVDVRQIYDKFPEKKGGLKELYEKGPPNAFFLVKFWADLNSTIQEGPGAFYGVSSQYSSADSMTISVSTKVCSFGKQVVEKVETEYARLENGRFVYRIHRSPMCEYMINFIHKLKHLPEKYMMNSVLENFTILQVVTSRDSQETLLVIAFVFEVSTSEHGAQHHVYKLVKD

TEAD4 = TEAD4 (Homo sapiens, UniProt Q15561); test: Selectivity panel (Table 3); format: binding
Sequence of TEAD4 (Q15561 whole entry, species assumed): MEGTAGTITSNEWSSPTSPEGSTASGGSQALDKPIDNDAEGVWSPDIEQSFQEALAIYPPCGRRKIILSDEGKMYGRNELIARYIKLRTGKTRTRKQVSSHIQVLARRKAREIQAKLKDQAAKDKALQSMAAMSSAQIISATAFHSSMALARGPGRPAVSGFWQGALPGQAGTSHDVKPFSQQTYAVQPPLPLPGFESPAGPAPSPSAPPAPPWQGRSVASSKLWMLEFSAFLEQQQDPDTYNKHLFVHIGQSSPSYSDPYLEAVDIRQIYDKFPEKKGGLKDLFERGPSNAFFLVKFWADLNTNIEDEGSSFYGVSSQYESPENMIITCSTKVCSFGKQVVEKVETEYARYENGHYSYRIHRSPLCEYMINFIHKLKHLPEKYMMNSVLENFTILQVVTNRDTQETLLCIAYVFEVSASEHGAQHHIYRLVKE

WIP 1 = WIP 1 (Homo sapiens, UniProt O15297); test: Selectivity panel (Table 3); format: biochemical
Sequence of WIP 1 (O15297 whole entry, species assumed): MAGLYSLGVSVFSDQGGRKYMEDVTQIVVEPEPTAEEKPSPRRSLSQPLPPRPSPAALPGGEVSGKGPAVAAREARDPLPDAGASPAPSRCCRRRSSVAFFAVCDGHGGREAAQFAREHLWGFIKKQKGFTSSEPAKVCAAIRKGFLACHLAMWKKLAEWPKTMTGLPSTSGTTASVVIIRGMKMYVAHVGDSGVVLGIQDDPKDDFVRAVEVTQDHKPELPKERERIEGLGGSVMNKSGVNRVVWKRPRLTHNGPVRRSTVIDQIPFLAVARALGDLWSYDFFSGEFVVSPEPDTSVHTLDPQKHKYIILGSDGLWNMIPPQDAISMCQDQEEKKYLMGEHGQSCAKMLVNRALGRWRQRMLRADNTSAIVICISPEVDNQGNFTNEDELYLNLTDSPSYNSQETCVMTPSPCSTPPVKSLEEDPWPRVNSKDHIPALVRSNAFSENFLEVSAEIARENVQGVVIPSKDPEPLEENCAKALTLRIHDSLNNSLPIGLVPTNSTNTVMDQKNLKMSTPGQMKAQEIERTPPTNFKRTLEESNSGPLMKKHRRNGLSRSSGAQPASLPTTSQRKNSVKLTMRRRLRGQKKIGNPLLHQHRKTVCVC

Dog PK (oral) = format: in vivo, Beagle dogs; settings: for Cmax / AUC(0-t) / half-life: Beagle, plasma
Experimental: Dog PK: Fasted or fed non-naïve Beagle dogs (Marshall Bioresources, Beijing, China) were administered a single intravenous bolus or oral gavage administration of test compounds at respective doses. Blood samples for plasma isolation were collected from a peripheral vessel, from restrained, non-sedated animals at the respective sampling time points. The quantification of compound concentrations in dog plasma was quantified using LC-MS/MS method. Plasma concentration versus time data was analyzed by non-compartmental mode approaches using the WinNonlin software program (version 6.3 or above, Pharsight). Pharmacokinetic parameters, including C0, CL, Vdss, Cmax, Tmax T1/2, AUC0-last, AUC0-inf, MRT0-last, MRT0-inf, bioavailability (%) for IV and PO groups were calculated. See FIGS. 9A, […], 9C and FIGS. 10A, 10B, 10C, and 10D.

Liver S9 stability assay [1] = format: in vitro ADME, rat
Experimental: (§1) Liver S9 stability assay: Test compounds (1 μM) and positive control were incubated with 5 mM GSH and liver S9 (1 mg protein/ml) from multiple species (including human, monkey, dog, rat and mouse) at 37° C. at 0, 10, 30, and 60 minutes in duplicate. After adding the stop solution, 100 μL of supernatant were analyzed by LC-MS/MS. The % remaining of test compound, T1/2 (min), and CLint (μL/min/mg) were calculated and were reported.

Liver S9 stability assay [2] = format: in vitro ADME, dog
Experimental: as §1

[3] = Metabolite ID in Liver S9; format: in vitro ADME; settings: HBI-2375 and metabolites in Mouse liver S9
[4] = Metabolite ID in Liver S9; format: in vitro ADME; settings: HBI-2375 and metabolites in Rat liver S9
Metabolite ID in plasma [5] = format: in vitro ADME; settings: HBI-2375 and metabolites in Mouse plasma
Metabolite ID in plasma [6] = format: in vitro ADME; settings: HBI-2375 and metabolites in Dog plasma
Metabolite ID in plasma [7] = format: in vitro ADME; settings: HBI-2375 and metabolites in Monkey plasma
Metabolite ID in plasma [8] = format: in vitro ADME; settings: HBI-2375 and metabolites in Human plasma
[9] = Predicted brain concentrations based on mouse/rat PK/BBB data; settings: Equivalent Human 6.5 mg/kg
Experimental: The ability of a compound of Formula (IIIb) (HBI_084 (HBI-2375)) to cross the BBB is determined in a population comprising one or more human subjects by orally (PO) or intravenously (IV) administering a pharmaceutical composition comprising a compound of Formula (IIIb) to the individual members of the population of human subjects at one or more doses described in Example 5. Blood samples and CSF are drawn from the subjects and compound concentrations are determined in the blood plasma and CSF of the subjects as described in Example 4. Pharmacokinetic parameters are determined by means analogous to those described in Examples 1-4. Doses for HBI-2375 may be based on a target concentration in subjects' brain predicted using the following table.

in vitro [10] = settings: human, plasma
in vitro [11] = settings: mouse, plasma
in vitro [12] = settings: cynomolgus monkey, plasma

Cc1c(F)c(N)cc(C(=O)Nc2cc(-n3cc(C(=O)N4CCN(C)CC4)nn3)c(F)cc2N2C[C@@H](C)N(C)[C@@H](C)C2)c1Cl [HYBI-084, 5-amino-2-chloro-4-fluoro-N-(4-fluoro-5-(4-(4-methylpiperazine-1-carbonyl)-1H-1,2,3-triazol-1-yl)-2-((3S,5R)-3,4,5-trimethylpiperazin-1-yl)phenyl)-3-methylbenzamide]
IC50 (ATX): > 1000 nM | IC50 (BRD4-BD1): > 1000 nM | IC50 (HDAC8): > 1000 nM | IC50 (KRAS G12C): > 1000 nM | IC50 (KRAS G12V): > 1000 nM | IC50 (KRAS WT): > 1000 nM | IC50 (PD-1/PD-L1): > 1000 nM | IC50 (POLQ ATPase): > 1000 nM | IC50 (POLQPolymerase): > 1000 nM | IC50 (PRMT5): > 1000 nM | IC50 (TEAD1): > 1000 nM | IC50 (TEAD3): > 1000 nM | IC50 (TEAD4): > 1000 nM | IC50 (WIP 1): > 1000 nM | F (Dog PK (oral); 1.5 mpk): 11.4% | F (Dog PK (oral); 4.5 mpk): 37.7% | Cmax (Dog PK (oral); 1.5 mg/kg, 1.5 mpk): 8.4 nM | Cmax (Dog PK (oral); 4.5 mg/kg, 4.5 mpk): 47.6 nM | AUC(0-t) (Dog PK (oral); 1.5 mg/kg, 1.5 mpk): 0.0466 µM·h | half-life (Dog PK (oral); 1.5 mg/kg, 1.5 mpk): 7.5 h | AUC(0-t) (Dog PK (oral); 4.5 mg/kg, 4.5 mpk): 0.459 µM·h | half-life (Dog PK (oral); 4.5 mg/kg, 4.5 mpk): 6.3 h | half-life at 1 μM (Liver S9 stability assay [1]; Rat liver S9): > 2.42 h | microsomal CLint at 1 μM (Liver S9 stability assay [1]; Rat liver S9): < 4.8 µL/min/mg | % Remaining after 60 min incubation (Liver S9 stability assay [1]; Rat liver S9, 1 μM, 5 mM GSH, 37° C.): 80.1% | half-life at 1 μM (Liver S9 stability assay [2]; Dog liver S9): > 2.42 h | microsomal CLint at 1 μM (Liver S9 stability assay [2]; Dog liver S9): < 4.8 µL/min/mg | % Remaining after 60 min incubation (Liver S9 stability assay [2]; Dog liver S9, 1 μM, 5 mM GSH, 37° C.): 92.5% | Relative Abundance (UV Peak Area % Total) [3]: 63.02% | Relative Abundance (UV Peak Area % Total) [4]: 71.86% | Relative Abundance (UV Peak Area % Total) (Metabolite ID in plasma [5]): 92.78% | Relative Abundance (UV Peak Area % Total) (Metabolite ID in plasma [6]): 97.31% | Relative Abundance (UV Peak Area % Total) (Metabolite ID in plasma [7]): 97.58% | Relative Abundance (UV Peak Area % Total) (Metabolite ID in plasma [8]): 97.20% | Predicted Mean Brain Concentration, Cmin = 24 h ([9]; estimated from repeated PO mouse): 11.1 ng/g | Predicted Mean Brain Concentration, Cmin = 24 h ([9]; estimated from single PO mouse): 4.5 ng/g | Predicted Mean Brain Concentration, Cmin = 24 h ([9]; estimated from single PO rat): 3.6 ng/g | fraction unbound (in vitro [10]): < 0.07 | fraction unbound (in vitro [11]): < 0.07 | fraction unbound (in vitro [12]): < 0.24
